ChEMBL document CHEMBL5143515, “Identification of new halogen-containing 2,4-diphenyl indenopyridin-5-one derivative as a boosting agent for the anticancer responses of clinically available topoisomerase inhibitors” (Eur J Med Chem, 2022)
Activity calls are given as the source filed them. The calls are words filed in the database; no cut-off is given here.

How the values were obtained:
[1] = molecular target: T1, DNA topoisomerase 1 (Homo sapiens) (UniProt P11387); test: Inhibition of recombinant human topoisomerase 1 assessed as relaxation of supercoiled plasmid pBR322 DNA at 100 uM by agarose gel electrophoresis (reference value: 83.2%)
T1 sequence (whole entry): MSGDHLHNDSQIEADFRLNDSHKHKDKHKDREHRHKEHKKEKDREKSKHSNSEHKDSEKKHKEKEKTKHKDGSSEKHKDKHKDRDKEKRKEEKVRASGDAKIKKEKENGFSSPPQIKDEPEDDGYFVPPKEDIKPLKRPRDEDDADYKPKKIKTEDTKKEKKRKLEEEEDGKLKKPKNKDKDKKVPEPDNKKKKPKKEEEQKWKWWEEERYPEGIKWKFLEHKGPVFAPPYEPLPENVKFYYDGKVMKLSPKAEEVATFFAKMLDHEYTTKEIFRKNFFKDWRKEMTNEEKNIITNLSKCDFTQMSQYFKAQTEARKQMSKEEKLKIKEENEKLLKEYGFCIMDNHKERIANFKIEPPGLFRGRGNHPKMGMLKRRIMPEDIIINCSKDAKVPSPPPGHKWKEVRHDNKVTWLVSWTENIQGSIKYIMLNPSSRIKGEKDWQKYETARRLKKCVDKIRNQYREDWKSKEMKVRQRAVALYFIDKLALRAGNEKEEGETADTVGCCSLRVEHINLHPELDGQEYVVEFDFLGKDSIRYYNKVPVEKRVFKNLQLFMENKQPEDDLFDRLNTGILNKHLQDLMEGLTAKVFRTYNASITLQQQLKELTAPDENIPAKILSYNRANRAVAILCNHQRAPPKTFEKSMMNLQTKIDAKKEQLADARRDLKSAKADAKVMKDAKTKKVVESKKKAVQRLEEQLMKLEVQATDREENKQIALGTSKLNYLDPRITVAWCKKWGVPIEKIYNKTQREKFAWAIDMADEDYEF

[2] = molecular target: DNA topoisomerase 2-alpha (Homo sapiens) (UniProt P11388); test: Inhibition of recombinant human topoisomerase 2alpha assessed as relaxation of supercoiled plasmid pBR322 DNA at 100 uM by agarose gel electrophoresis (reference value: 82.2%)
DNA topoisomerase 2-alpha (Homo sapiens), sequence (P11388 whole entry): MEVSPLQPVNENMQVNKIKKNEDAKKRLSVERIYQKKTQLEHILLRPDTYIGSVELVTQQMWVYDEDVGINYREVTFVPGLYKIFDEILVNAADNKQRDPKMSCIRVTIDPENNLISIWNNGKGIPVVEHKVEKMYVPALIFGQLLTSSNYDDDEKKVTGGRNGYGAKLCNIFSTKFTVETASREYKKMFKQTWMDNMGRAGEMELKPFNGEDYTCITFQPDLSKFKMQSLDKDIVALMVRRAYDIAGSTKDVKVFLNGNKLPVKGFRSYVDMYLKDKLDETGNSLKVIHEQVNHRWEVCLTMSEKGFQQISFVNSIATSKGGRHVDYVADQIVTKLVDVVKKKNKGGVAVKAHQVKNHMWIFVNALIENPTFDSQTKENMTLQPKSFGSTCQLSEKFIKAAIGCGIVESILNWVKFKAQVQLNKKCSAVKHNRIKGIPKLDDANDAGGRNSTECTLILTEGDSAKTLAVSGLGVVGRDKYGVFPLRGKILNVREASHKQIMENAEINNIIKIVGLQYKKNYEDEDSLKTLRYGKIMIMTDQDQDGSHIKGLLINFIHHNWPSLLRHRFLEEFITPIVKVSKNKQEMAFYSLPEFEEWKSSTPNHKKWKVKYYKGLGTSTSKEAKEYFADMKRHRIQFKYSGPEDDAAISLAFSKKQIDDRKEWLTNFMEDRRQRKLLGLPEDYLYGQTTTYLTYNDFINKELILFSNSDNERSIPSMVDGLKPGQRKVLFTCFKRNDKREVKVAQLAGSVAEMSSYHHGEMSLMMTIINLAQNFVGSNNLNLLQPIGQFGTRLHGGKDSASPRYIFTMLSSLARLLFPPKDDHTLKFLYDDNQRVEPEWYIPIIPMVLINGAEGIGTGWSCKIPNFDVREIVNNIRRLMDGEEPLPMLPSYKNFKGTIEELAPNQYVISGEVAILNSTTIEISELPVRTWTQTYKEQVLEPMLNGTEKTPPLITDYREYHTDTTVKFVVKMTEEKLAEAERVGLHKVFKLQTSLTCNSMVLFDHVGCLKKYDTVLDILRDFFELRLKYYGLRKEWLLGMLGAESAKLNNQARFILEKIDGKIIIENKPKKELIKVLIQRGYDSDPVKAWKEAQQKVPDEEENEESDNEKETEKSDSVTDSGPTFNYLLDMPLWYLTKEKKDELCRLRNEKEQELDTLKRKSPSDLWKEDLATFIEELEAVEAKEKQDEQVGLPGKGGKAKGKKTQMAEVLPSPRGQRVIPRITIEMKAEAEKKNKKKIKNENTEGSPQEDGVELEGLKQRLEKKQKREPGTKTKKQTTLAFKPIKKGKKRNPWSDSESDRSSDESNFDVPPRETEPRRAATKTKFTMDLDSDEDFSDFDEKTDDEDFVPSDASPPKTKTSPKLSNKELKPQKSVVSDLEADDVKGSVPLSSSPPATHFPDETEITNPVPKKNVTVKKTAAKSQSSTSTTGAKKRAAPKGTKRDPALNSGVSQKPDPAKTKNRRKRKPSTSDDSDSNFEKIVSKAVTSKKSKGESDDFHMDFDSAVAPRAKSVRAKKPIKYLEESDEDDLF

[3] = molecular target: DNA topoisomerase 2-alpha (Homo sapiens) (UniProt P11388); test: Inhibition of recombinant human topoisomerase 2alpha assessed as relaxation of supercoiled plasmid pBR322 DNA at 20 uM by agarose gel electrophoresis (reference value: 48.4%)
DU-145 = test: Antiproliferative activity against human DU-145 cells after 72 hrs by EZ-Cytox colorimetric assay; assay type: functional, cell-based; conditions: DU-145, 72 h
HCT-15 [4] = test: Antiproliferative activity against human HCT-15 cells after 72 hrs by EZ-Cytox colorimetric assay; assay type: functional, cell-based; conditions: HCT-15, 72 h
HeLa = test: Antiproliferative activity against human HeLa cells after 72 hrs by EZ-Cytox colorimetric assay; assay type: functional, cell-based
T47D = test: Antiproliferative activity against human T47D cells after 72 hrs by EZ-Cytox colorimetric assay; assay type: functional, cell-based
[5] = molecular target: T1, DNA topoisomerase 1 (Homo sapiens); test: Catalytic inhibitor of non-intercalative topoisomerase 1 (unknown origin) assessed as binding to minor groove at 100 to 500 uM measured by cleavage complex assay; conditions: dose 100-500 µM
[6] = molecular target: DNA topoisomerase 2-alpha (Homo sapiens) (UniProt P11388); test: Catalytic inhibitor of non-intercalative topoisomerase 2alpha (unknown origin) assessed as binding to minor groove at 250 to 500 uM measured by cleavage complex assay; conditions: dose 250-500 µM
Calf thymus DNA = test: Binding affinity to calf thymus DNA assessed as DNA intercalation by measuring Stem-Volmer quenching constant at 0.01 to 0.1 uM by Hoechst displacement assay; assay type: nucleic-acid assay; conditions: Bos taurus; dose 0.01-0.1 µM
[7] = Cytotoxicity against human MRC5 cells after 72 hrs by EZ-Cytox colorimetric assay; assay type: toxicity, cell-based
[8] = Cytotoxicity against mouse M2-10B4 cells after 72 hrs by EZ-Cytox colorimetric assay; assay type: toxicity, cell-based
HCT-15 [9] = test: Synergistic antiproliferative activity against human HCT-15 cells at 5 uM in presence of 0.2 uM etoposide after 72 hrs by WST-1 assay; assay type: functional, cell-based
HCT-15 [10] = test: Induction of apoptosis in human HCT-15 cells assessed as change in c-PARP level at 2 to 5 uM in presence of 0.2 uM etoposide and measured by Western blot analysis; assay type: functional, cell-based; conditions: dose 2-5 µM
HCT-15 [11] = test: Antitumor activity against human HCT-15 cells xenografted in female BALB/c nude mouse assessed as tumor growth retardation at 4 mg/kg, ip administered every day for 6 days in combination with etoposide at 2 mg/kg, ip administered every day for 6 days; assay type: functional, organism-based; conditions: time 6.0 day
HCT-15 [12] = test: Antitumor activity against human HCT-15 cells xenografted in female BALB/c nude mouse assessed as decrease in Ki67 expression at 4 mg/kg, ip administered every day for 6 days in combination with etoposide at 2 mg/kg, ip administered every day for 6 days measured by immunohistochemistry analysis; assay type: functional, organism-based; conditions: time 6.0 day
[13] = Genotoxicity in human HCT-15 cells assessed as production of Ub1-gamma-H2AX at 2 to 5 uM and measured by western blot analysis; assay type: toxicity, cell-based; conditions: hct-15, 5 µM, dose 2-5 µM
[14] = Genotoxicity in human HCT-15 cells assessed as production of fragmented DNA tails at 2 to 5 uM and measured by comet assay; assay type: toxicity, cell-based; conditions: hct-15, 5 µM, dose 2-5 µM
[15] = Genotoxicity in human HCT-15 cells assessed as production of Ub1-gamma-H2AX at 2 to 5 uM and measured in presence of 1 nM camptothecin by western blot analysis; assay type: toxicity, cell-based; conditions: hct-15, 5 µM, dose 2-5 µM
[16] = Genotoxicity in human HCT-15 cells assessed as production of gamma-H2AX at 2 to 5 uM and measured in presence of 0.2 uM etoposide by western blot analysis; assay type: toxicity, cell-based; conditions: hct-15, 5 µM, dose 2-5 µM
[17] = Genotoxicity in human HCT-15 cells assessed as production of fragmented DNA tails at 2 to 5 uM and measured in presence of 1 nM camptothecin by comet assay; assay type: toxicity, cell-based; conditions: hct-15, 5 µM, dose 2-5 µM
[18] = Genotoxicity in human HCT-15 cells assessed as production of fragmented DNA tails at 2 to 5 uM and measured in presence of 0.2 uM etoposide by comet assay; assay type: toxicity, cell-based; conditions: hct-15, 5 µM, dose 2-5 µM
[19] = Toxicity in mouse assessed as reduction in number of white blood cells at 4 mg/kg in presence of 2 mg/kg etoposide; assay type: organism-based; conditions: in vivo
[20] = Toxicity in mouse assessed as reduction in number of absolute neutrophil count at 4 mg/kg; assay type: organism-based; conditions: in vivo
[21] = Toxicity in mouse assessed as reduction in number of absolute neutrophil count at 4 mg/kg in presence of 2 mg/kg etoposide; assay type: organism-based; conditions: in vivo
[22] = Toxicity in mouse assessed as reduction in number of red blood cells at 4 mg/kg; assay type: organism-based; conditions: in vivo
[23] = Toxicity in mouse assessed as reduction in hemoglobin level at 4 mg/kg; assay type: organism-based; conditions: in vivo
[24] = Toxicity in mouse assessed as increase in mean corpuscular volume of RBC at 4 mg/kg; assay type: organism-based, Erythrocyte; conditions: in vivo
[25] = Toxicity in mouse assessed as increase in d red cell distribution width at 4 mg/kg; assay type: organism-based; conditions: in vivo
[26] = Toxicity in mouse assessed as reduction in number of red blood cells at 4 mg/kg administered in combination with 2 mg/kg etoposide; assay type: organism-based; conditions: in vivo
[27] = Toxicity in mouse assessed as increase in d red cell distribution width at 4 mg/kg administered in combination with 2 mg/kg etoposide; assay type: organism-based; conditions: in vivo

O=C1c2ccccc2-c2nc(-c3ccc(Br)cc3)cc(-c3ccccc3)c21
inhibition [1]: 87%
inhibition [2]: 85.8%
inhibition [3]: 6.6%
IC50 (DU-145): 4.84 µM
IC50 (HCT-15 [4]): 7.84 µM
IC50 (HeLa): > 50 µM
IC50 (T47D): 32.7 µM
inhibition [5]: Active
inhibition [6]: Active
KSV (Calf thymus DNA): 2.09 10^6/M
IC50 at 72 h [7]: > 10 µM
IC50 at 72 h [8]: > 10 µM
Activity (HCT-15 [9]): Active
Activity (HCT-15 [10]): Active
Activity (HCT-15 [11]): Active
Activity (HCT-15 [12]): Active
Activity [13]: Non-Toxic
Activity [14]: Non-Toxic
Activity [15]: Non-Toxic
Activity [16]: Non-Toxic
Activity [17]: Non-Toxic
Activity [18]: Non-Toxic
Activity [19]: Non-Toxic
Activity [20]: Non-Toxic
Activity [21]: Non-Toxic
Activity [22]: Non-Toxic
Activity [23]: Non-Toxic
Activity [24]: Non-Toxic
Activity [25]: Non-Toxic
Activity [26]: Non-Toxic
Activity [27]: Non-Toxic
